One assay relates to MCF-7. Put plainly: Cytotoxicity assay using propidium iodide (PI). The class given is cell-based, human. Here is the method:
(§1) The propidium iodide fluorescence assay (PI) was carried out according to the procedure mentioned in Anticancer Drugs, 1995, 6, 522-32. The assay was developed to characterize the in vitro growth of human tumor cell lines as well as to test the cytotoxic activity of the compounds. Propidium iodide (PI) was used as a dye, which penetrates only damaged cellular membranes. Intercalation complexes are formed by PI with double-stranded DNA, which effect an amplification of the fluorescence. After freezing the cells at −20° C. for 24 h, PI had access to total DNA leading to total cell population counts. Background readings were obtained from cell-free wells containing media and propidium iodide. The human breast cancer cell lines (i.e. […] Control wells were treated with vehicle (DMSO). At the end of the incubation periods, the plates were assayed using PI cytotoxicity assay protocol. Percent cytoxicity was calculated at various drug concentrations and from the graph plotted the IC50 values were determined.

Another assay concerns MDA-MB-231. Put plainly: Cytotoxicity assay using propidium iodide (PI). The class given is cell-based, human. Here is the method:
as §1

Assay [1] concerns MDA-MB-468. Put plainly: Cytotoxicity assay using propidium iodide (PI). In kind it is cell-based, human. The protocol:
as §1

For another assay, the system named is BT-549. Put plainly: Cytotoxicity assay using propidium iodide (PI). The class given is cell-based. The conditions noted are these: Homo sapiens, 48 h treatment. Here is the method:
as §1

A further assay deals with HBL-100. Put plainly: Cytotoxicity assay using propidium iodide (PI). The class given is cell-based. The conditions noted are these: Homo sapiens. The protocol: as §1
The next assay deals with MDA-MB-361. Put plainly: Cytotoxicity assay using propidium iodide (PI). The class given is cell-based. The conditions noted are these: Homo sapiens. The protocol: as §1
The next assay has as its system MDA-MB-435-S. Put plainly: Cytotoxicity assay using propidium iodide (PI). In kind it is cell-based. Conditions: Homo sapiens. Here is the method:
as §1

The next assay concerns T47-D. Put plainly: Cytotoxicity assay using propidium iodide (PI). In kind it is cell-based. Conditions: Homo sapiens, T47D. The protocol:
as §1

The subject of another assay is ZR-75-1. Put plainly: Cytotoxicity assay using propidium iodide (PI). In kind it is cell-based. The conditions noted are these: Homo sapiens. The protocol: as §1
Assay [2] has as its system MDA-MB-468. Put plainly: Cell cycle progression and apoptosis by flow cytometry (sub-G1). In kind it is cell-based, human. The protocol: Before analysis, cells were washed twice with PBS to remove the fixative and re-suspended in PBS containing 50 μg/mL propidium iodide and 50 μg/mL RNaseA. After incubation at room temperature (20-35° C.) for 20 min, cells were analyzed using flow cytometry. A Becton Dickinson FACS Calibur flow cytometer (BD, USA) was used for these studies. The argon ion laser set at 488 nm was used as an excitation source. Cells with DNA content between 2n and 4n were designated as being in G1, S and G2/M phases of the cell cycle, as defined by the level of red fluorescence. […] The number of cells in each cell cycle compartment was expressed as a percentage of the total number of cells present. The results are shown in Table 3 and graphically presented in FIG. 3A (MCF-7 cell lines) and FIG. 3B (MDA-MB-231 cell lines).
Comparison of the effect of Compound A and PARP inhibitor BSI-201 (Iniparib developed by Sanofi-Aventis. BSI-201 is prepared in-house) on cell cycle progression and apoptosis was evaluated in two TNBC cell lines. The asynchronous human TNBC cell lines MDA-MB-231 and MDA-MB-468 were seeded in […] tissue culture flask at a density of 0.5×10^6 cells per flask in RPMI 1460 with 10% FCS. After 24 h, cells were treated either with 1.5 and 3.0 μM of Compound A or 50 μM of PARP inhibitor BSI-201 for 72 h. After the incubation cells were harvested (trypsinised) and processed as given in example 6.

In assay [3] the test system is Bcl-2. Put plainly: Western blot analysis in MCF-7 cells. In kind it is cell-based, human. The conditions noted are these: 1.5 and 4.5 μM, 6, 24 and 30 h. The protocol:
(§2) The Western blot assay was carried out according to the procedure disclosed in Molecular Cancer Therapeutics, 2007, 6, 918-925 with some modifications.
(§3) MCF-7 and MDA-MB-231 cells were seeded in RPMI 1460 medium with 10% FCS in […] tissue culture flask and incubated for 24 h. The cells were treated with Compound A at 1.5 and 4.5 μM. At various time points, i.e. 6, 24 and 30 h the cells were harvested or trypsinized and lysed using lysis buffer (Sigma Aldrich, USA). Protein content was estimated. Lysate was applied to Sodium Dodecyl Sulphate-Polyacrylamide Gel Electrophoresis (SDS-PAGE) followed by western blotting (Molecular Cancer Therapeutics, 2007, 6, 918-925). Western blotting was done using specific antibodies to Bcl-2 and actin. The results are depicted in FIG. 4.

The test system of assay [4] is Bcl-2. Put plainly: Western blot analysis in MDA-MB-231 cells. In kind it is cell-based, human. Conditions: 1.5 and 4.5 μM, 6, 24 and 30 h. Here is the method:
as §2, §3

A further assay relates to HIF-1α. Put plainly: HIF-1α reporter gene based assay (U251 HRE). The class given is cell-based. The conditions noted are these: hypoxia (<1% O2), 0.01-10 μM, 20 h. The text has this:
1) U251 HRE: The genetically engineered cells U251 HRE which stably express a recombinant vector in which the Luciferase reporter gene is under control of three copies of a canonical HRE. 2) U251 pGL3: A control cell line contains the firefly Luciferase reporter gene under control of the constitutively active SV40 promoter and enhancer that helps to exclude compounds that inhibit Luciferase expression in a nonspecific and/or HIF-1-independent fashion. These cells expressed high basal levels of Luciferase in normoxic conditions and slightly lower levels in hypoxic conditions.
U251 HRE cells were inoculated into 96 well white flat-bottomed plates at 10000-15000 cells/well in a volume of 180 μL and incubated for 24 h at 37° C., 5% CO2, and ambient O2. Compound A was tested at various concentrations viz. […] After 20 h incubation, the plates were removed and incubated at room temperature, 5% CO2, and ambient O2 for 1.5 h. 40 μL of Bright Glo Luciferase reagent (Promega™, USA) was added and after 3 min, luminescence was measured using a Polar Star Plate Reader (USA) in luminescence mode. Appropriate control cells (U251 pGL3) were treated identically, except that they were treated at 37° C., 5% CO2 and ambient O2. Compound toxicity was assayed using the MTS assay.

[5] abbreviates: Homo sapiens, 48 h treatment, PI assay.

Regarding `CN1CC[C@@H](c2c(O)cc(O)c3c(=O)cc(-c4ccccc4Cl)oc23)[C@@H]1CO.Cl` [Compound A, (+)-trans-2-(2-Chloro-phenyl)-5,7-dihydroxy-8-(2-hydroxymethyl-1-methyl-pyrrolidin-3-yl)-chromen-4-one hydrochloride], the IC50 with MCF-7 (Homo sapiens, MCF7, PI assay) stood at 1 µM; in the assay on MDA-MB-231 (setting [5]), 1 µM; with MDA-MB-468 [1] (setting [5]), 1 µM; with BT-549, 0.8 µM; in the assay with HBL-100, 0.51 µM; with MDA-MB-361, 0.75 µM. Besides, the results for the IC50 in the assay on MDA-MB-435-S, in the assay with T47-D and in the assay with ZR-75-1 were 0.3 µM, 0.5 µM and 0.9 µM, respectively. The figures for the 10% effect concentration (IC10) in the assay with MCF-7 (determined as in Example 3), with MDA-MB-231 (determined as in Example 3) and with MDA-MB-468 [1] (determined as in Example 3) were 0.37 µM, 0.45 µM and 0.25 µM, respectively. For the same compound, the IC30 in the assay with MCF-7 (determined as in Example 3) was determined as 0.75 µM; in the assay with MDA-MB-231 (determined as in Example 3), 0.75 µM; in the assay with MDA-MB-468 [1] (determined as in Example 3), 0.5 µM. For the same compound, the “% apoptosis at 72 h” value in the assay on MDA-MB-468 [2] (1.5 μM) is 36.09%; in the assay on MDA-MB-468 [2] (3 μM) it was 62.5%. Further, the “expression of antiapoptotic protein Bcl-2” value is “significantly down regulated from 24 h onwards” with Bcl-2 [3] and “significant down regulation was observed at 30 h” in the assay with Bcl-2 [4]. For the same compound, in the assay on HIF-1α, the “expression of HIF-1α (luciferase reporter)” value is on record as “effectively blocked the expression of HIF-1α in a dose dependent manner”.

The values are drawn from patent US20130237582A1, “PHARMACEUTICAL COMBINATION OF PACLITAXEL AND A CDK INHIBITOR” (Piramal Enterprises Limited, priority 2010, published 2013).
